Data on 2 molecules can be found in patent US20230393120A1, “A HUMAN VASCULAR INJURY-ON-A-CHIP MODEL OF HEMOSTASIS” (THE TRUSTEES OF THE UNIVERSITY OF PENNSYLVANIA, priority 2020, published 2023).

The experiment concerns injury-induced platelet and fibrin deposition (hemostatic plug formation), human whole blood. The experiment is described as follows: Drug testing in the vascular injury-on-a-chip perfused with drug-containing whole blood. In kind it is cell-based. From the text: Human vascular injury-on-a-chip as a drug screening platform: anticoagulants and antiplatelet agents can be used for treating or preventing thrombotic events in the arterial and venous circulations. However, anticoagulants and antiplatelet agents can increase the risk of bleeding, especially when used in combination. The disclosed vascular injury-on-a-chip model provides a potential tool for evaluating these adverse effects, offering a complementary approach to animal models. Such features were tested using Hirudin and eptifibatide as model compounds representing anticoagulant and antiplatelet drugs, respectively. The disclosed subject matter was used to measure and compare the extent of injury-induced platelet and fibrin deposition when the disclosed devices were perfused with drug-containing whole blood. […] For quantitative analysis, we devised an injury closure score ranging between 0 and 2, which corresponds to fully open and fully closed, respectively. The hirudin-treated devices yielded an average score of […] the untreated control group scored 1.138. (FIG. 5E), indicating the adverse effects of Hirudin on the formation of competent hemostatic plugs.
Preparation of blood vessel-on-a-chip: Assembled devices were autoclaved for sterilization prior to cell culture. To increase the strength of interfacial adhesion between collagen gel and PDMS, dopamine hydrochloride (Sigma-Aldrich) solution (2.0 mg/mL w/v in 10 mM Tris-HCl buffer, pH 8.5) was injected into the middle compartment of the device and incubated for 2 hours at room temperature. Next, 6 mg/ml of rat-tail collagen type I containing 2.5% (v/v) lipidated tissue factor (Dade Innovin Reagent, Siemens) was introduced into the polydopamine-treated chamber and polymerized at 37° C. for 30 minutes. After gelation, HUVECs suspended in EGM-2 medium were seeded into the intravascular channel at a density of 1.6-1.8×10^6 cells/ml and allowed to settle and adhere to the surface of the collagen hydrogel by rotating the device by 90°. Following cell attachment, the device was perfused with medium to form a confluent endothelial monolayer. For TNF-a experiments, HUVECs were seeded on a tissue factor-free collagen gel and treated overnight with 1 ng/ml of TNF-a (Peprotech).
Healthy donor blood preparation: The blood was obtained via venipuncture into a syringe containing 3.8% sodium citrate (9:1) and 40 μg/ml of corn trypsin inhibitor (CTI). Right before perfusion through the device, the blood was recalcified (15 mM CaCl2) for 3 minutes. Fluorescently-labeled antibodies to detect platelets (a-CD61-568), P-selectin (a-CD62P-647), and fibrin (a-Fibrin-488) were added at a final concentration of 1 μg/ml. If inhibitors were used in the experiment, they were added in the recalcification step as well. The final concentration for eptifibatide acetate was 100 μM, and for Hirudin was 4 μg/ml.
Puncture injury and global hemostasis assessment: For precise spatial control of injury, a 30 G blunt needle was inserted between the two PM DS channel layers during device assembly and used as a sheath that guides the insertion of a microneedle. To induce puncture injury, either a 0.12 or 0.20 mm acupuncture needle was inserted into the guide needle and gently pushed towards the extravascular compartments in a controlled manner either to pierce through the endothelium and the entire thickness of the collagen hydrogel or to superficially injure the endothelial layer. Following injury, the intravascular and extravascular channels were perfused with recalcified blood and HBSS buffer (20 mM HEPES, 2 mM Ca2+), respectively using two independently controlled syringe pumps (Fusion 400, Chemyx & BS-8000 120 V, Braintree Scientific).
Fluorescently-labeled antibodies to CD61, P-selectin, and fibrin were added to the blood prior to perfusion through the microfluidic device to visualize platelet deposition, platelet activation, and fibrin accumulation. […]

Where a SMILES comes first, the peptide text is derived from it. Bridges are numbered along the chain shown (N, C = ends). [ ]: non-standard residue; d: D form. hArg = N=C(N)NCCCC[C@H](N)C(=O)O; Mpa = O=C(O)CCS

Regarding `N=C(N)NCCCC[C@@H]1NC(=O)CCSSC[C@@H](C(N)=O)NC(=O)[C@@H]2CCCN2C(=O)[C@H](Cc2c[nH]c3ccccc23)NC(=O)[C@H](CC(=O)O)NC(=O)CNC1=O` [eptifibatide] ([Mpa][hArg]GDWPC-NH2; disulfide 1-7), the “contraction of the vessel wall (matrix deformation, normalized injury area over time)” value (eptifibatide 100 μM) is “negligible contraction”. Moreover, where the note is “eptifibatide 100 μM in whole blood”, the platelet activation entry is reported as “reduction”. The fibrin accumulation result (eptifibatide 100 μM in whole blood, relative to control) is given as “did not change”. Moreover, the platelet accumulation result (eptifibatide 100 μM in whole blood, vs control) is given as “markedly reduce”. In addition, the “injury channel closure, compared with Hirudin” value (eptifibatide 100 μM vs Hirudin 4 μg/ml) is “to a greater extent than Hirudin”. Further, the “state of the injury channel” value (eptifibatide 100 μM, confocal images) is “remained open”. Further, the “injury score (0 fully open, 1 partially closed, 2 fully closed)” value (eptifibatide 100 μM, final time point) came out at 0.

On to Hirudin, for which the fibrin accumulation result (Hirudin 4 μg/ml in whole blood, vs control) is recorded as “drastically reduce”. Also, the platelet accumulation entry (Hirudin 4 μg/ml in whole blood, vs control without the drug) was “no statistically significant changes”. Under “Hirudin 4 μg/ml in whole blood, vs control without the drug, P-selectin MFI”, the platelet activation result was “no statistically significant changes”. Where the note is “Hirudin 4 μg/ml, confocal images”, the “state of the injury channel openings” value is on record as “intravascular end of the injury channel remained open, but platelet aggregates blocked the extravascular opening”. For the same molecule, the “injury closure (injury closure score 0-2, fully open to fully closed)” value (Hirudin 4 μg/ml, final time point) was “inhibits”.
